ChEMBL document CHEMBL3507680, “University of Dundee, Gates Library screen for HepG2 cell viability”

Test: Human HepG2 cell viability assay in 384 well format
Format: toxicity, cell-based
Set-up: dose 125 nL, time 70.5 hour; concentration not given beside the values
Details: HepG2 cells, read-out: Inhibition

Structure (SMILES)	cytotoxicity at 70.5 h [%]
O=C1CC[C@H]2[C@H](CCN2Cc2ccccn2)N1CC1CCOCC1	-6.68
N#CCCNC(=O)CN1CC(n2cccn2)C1	-1.56
COC1CCN(c2cc(C(C)C)nc3ccnn23)C1 (stereo unspecified)	5.73
Cc1nc(CN2CC3(CCN(c4ncc(F)cn4)C3)CC2=O)cs1 (stereo unspecified)	-0.115
Cc1cnn(CC(=O)N2CCC(c3ccn4nccc4n3)CC2)c1	-2.27
CCNc1nc(C)c(C(=O)N(C)Cc2nc(CC)no2)s1	-34.8
COc1ccc(C)cc1CSCCn1nc2ccccn2c1=O	-11.5
COc1ccc(CN2CC[C@H](NC(C)=O)[C@@H](O)CC2)c(OC)c1	-17.2
Cn1cnc2c1CCN(CCCc1ccccc1)C2	-1.08
CN1C[C@@H](N)C[C@H]1C(=O)N1CCC(CCCc2ccccc2)CC1	-0.968
O=C(C1CCCC1)N1C[C@H]2CNC[C@H]2C1	-8.49
CN(C)c1ccc(C(=O)N2CCC(c3cc4ncccc4[nH]3)CC2)cc1	-1.4
C[C@@H]1CN(c2nc(N)nc3c2CCC3)C[C@]1(C)O	1.03
CC(c1ccc(C(F)(F)F)cc1)N1CCN(CCS(C)(=O)=O)CC1 (stereo unspecified)	-1.96
Cc1ccc2cccc(S(=O)(=O)N(C)CC3CCN(C)CC3)c2n1	-7.7
Cc1cc(CN2CCN3C[C@H](c4ccccc4)[C@@H](CO)[C@H]3C2)on1	-5.95
Cc1cc(C(=O)N2CC[C@H]3[C@H](C[C@@H](CN4CCCC4)N3C)C2)c(C)o1	1.81
Fc1ccccc1CN1CCCC2(CCN(c3ncccn3)CC2)C1	-3.46
c1ccc2c(CC3CN(Cc4nccs4)CCO3)cccc2c1 (stereo unspecified)	-0.398

Structure (SMILES)	cytotoxicity at 70.5 h [%]
CN1CC2(CCN(Cc3cccnc3)CC2)c2cccc(F)c21	-2.73
CCOC(=O)CNC(=O)NCc1cccn1Cc1ccccc1F	-2.5
CC(C)(C)c1cnc(CN2CCC(CN3CCOCC3)CC2)o1	22.6
Cc1cc(-c2nn(C)c(Cl)c2CN2Cc3ccccc3C(O)C2)no1 (stereo unspecified)	-11.3
CC(=O)c1ccc(N2CCC3(CCC(=O)N(C4CC4)C3)CC2)nc1	-1.87
CN(C)CCNc1ccc(-c2nc(COc3ccccc3)no2)cn1	3.62
O=C1CSC(c2ccccc2)c2c(n(C3CCOCC3)[nH]c2=O)N1 (stereo unspecified)	-23
CCn1nnc2c1C(COCCN(C)C)CN(c1nncs1)C2 (stereo unspecified)	31.1
CCOC1CCC2(CCN(C(=O)c3c[nH]cn3)CC2)c2ccccc21 (stereo unspecified)	-6.3
CO[C@H]1CNC[C@@H]1NC(=O)c1cc(C)nc2c(C)cc(C)cc12	2.49
CCC(CC)C(CNC(=O)Nc1ccc(C)cc1)N1CCOCC1 (stereo unspecified)	-15.7
O=S(=O)(c1c(F)cccc1F)N1CCC(Cn2cccn2)CC1	-11.8
COCc1nc2cc(NCc3ncc[nH]3)ccc2o1	-3.38
Cc1ncc(S(=O)(=O)Nc2ccnn2C(C)C)[nH]1	3.96
O=C(NCCn1ccc(-c2ccccn2)n1)c1ccncc1	11.3
Cc1ncc(CN2Cc3ccccc3O[C@]3(CC[C@H](CO)CC3)C2)cn1	-2.89
Cn1cc(C(=O)CC2CCCN2C(=O)c2ccc(Cl)cn2)cn1 (stereo unspecified)	-8.95
c1cc(CNc2cnc(C3CCCN3)cn2)ccn1 (stereo unspecified)	-1.63
O=C(c1ncn2c(C3CCN(CC4CC4)CC3)ccnc12)N1CCCC1	0.745

Structure (SMILES)	cytotoxicity at 70.5 h [%]
COCCNC(=O)c1cc(F)ccc1NS(C)(=O)=O	-1.48
Cc1ccc2c(ccn2CC(=O)NC[C@@H]2CCCN3CCCC[C@H]23)c1	-2.59
COc1ccccc1C(=O)Nc1c(F)c(C(=O)NCCC(C)C)nn1C	25.3
CCSc1ncc(CN2CC[C@@](O)(COC)C(C)(C)C2)cn1	-18.2
CC(C)CN1CCS(=O)(=O)[C@@H]2CCN(S(=O)(=O)CC(C)C)CC[C@@H]21	-3.69
C[C@@H]1CN(Cc2nnc(-c3cccnc3)o2)CC[C@]1(C)O	6.07
CC(Cc1cccc(Cl)c1)NC(=O)NCc1ncnn1C (stereo unspecified)	11.1
Cc1noc(C)c1CNc1ccc2nc(C3CC3)sc2c1	-1.96
CN(CCCc1nccn1C)C(=O)C1COc2ccccc2C1 (stereo unspecified)	-2.53
OCC(O)CSCc1nnc(-c2ccc(Cl)cc2)o1 (stereo unspecified)	-13.7
CC(C)(CNC(=O)C1(c2cccc(Br)c2)CCOCC1)C(=O)O	-0.158
O=C(c1onc2ccccc12)N1CCC2(CCCNC2)C1 (stereo unspecified)	-16.6
O=C1CO[C@H]2CN(S(=O)(=O)c3ccccc3)C[C@H]2N1Cc1ccccc1	-9.3
CCN(CC)S(=O)(=O)N1CCC(c2nccn2Cc2ccccn2)CC1	12.4
O=C([C@H]1C[C@H]2OCC[C@H]2N(Cc2ccco2)C1)N1CCCO1	-14.8
CC(C)(C)CC(=O)NCC(=O)Nc1ccn(CCCn2ccnc2)n1	-2.26
Cc1cnn(CCC(=O)N2CCN(C(=O)C3CC3)[C@@H]3CS(=O)(=O)C[C@@H]32)c1	-5.71
COCCCN1C(=O)CC[C@H]2CN(c3cnc4ccccc4n3)CC[C@H]21	25
